Data published in PMC3323469, “Comparative study of ^64Cu/NOTA-[D-Tyr^6,βAla^11,Thi^13,Nle^14]BBN(6-14) monomer and dimers for prostate cancer PET imaging” (EJNMMI Research, 2012).
Numbered stars: 1 amine (or outer) side, 2 acyl side, 3 side chain; on linkers, the order of the positions; unused ones are H or OH. Bridge positions count the residues as written; N and C are the ends. Square brackets hold non-standard residues; d marks the D form. Peptide text beside a SMILES is read from it. I, II: the chains in the order shown. * marks the point of attachment. NOTA = O=C(O)CN1CCN(CC(=O)O)CCN(CC(=O)*)CC1; X1 = O=C(CCC(=O)[*:2])NCCOCCOCC(=O)[*:1]; 2Thi = N[C@@H](Cc1cccs1)C(=O)O; Nle = CCCC[C@H](N)C(=O)O; AEEA = NCCOCCOCC(=O)O; βAla = NCCC(=O)O

Experiments:
[1] = type: in vitro ADME; details: 24 h
Experimental: Plasma and in vivo stability studies were realized as previously described by our group. Briefly, after peptide reconstitution, studies were carried out by incubating the tracers in mouse plasma for a period of 24 h and by injecting around 15 to 25 MBq (400 to 650 μCi; 100 μL) of ^64Cu/peptide to female Balb/c mice; 3 mice per peptide. After 24 h, a portion of the incubation mixtures in plasma or blood samples taken from the back paw were quenched with equal amounts of MeCN, chilled (4°C) and centrifuged, and the supernatant was assayed by HPLC. The stability was also determined by radio-TLC directly from plasma and blood samples without further handling; free ^64Cu and purified radiolabeled peptides were used as standards. The radio-TLCs were eluted on C-18-coated plastic sheets with 0.1 M sodium citrate buffer at pH 5.5 using an instant imager system for the radio-detection.

[2] = in vivo; set-up: species or system Balb/c nude mice; details: Balb/c nude, mouse, total radioactivity; for tissue to tissue ratio at 0.5 h / tissue to tissue ratio at 2 h: iv
Experimental: (§1) Tumor-bearing Balb/c nude mice were injected with 370 to 740 kBq (10 to 20 μCi; 100 μL) of ^64Cu/NOTA-monomer and ^64Cu/NOTA-dimer 2 via the caudal vein and sacrificed with CO2 at different periods of time after injection. Organs of interest were then collected and weighed. -Radioactivity was measured in a gamma counter. The blocking experiments were realized by co-injecting 0.1 μmol of non-radiolabeled peptide. The results were expressed as %ID/g with a minimum of 3 mice for each condition.

[3] = tested on: PC3 tumor; experiment: in vivo; set-up: species or system Balb/c nude mice; details: mouse
Experimental: as §1

In the case of CCCC[C@H](NC(=O)[C@H](Cc1cccs1)NC(=O)[C@H](Cc1c[nH]cn1)NC(=O)CCNC(=O)[C@@H](NC(=O)[C@H](C)NC(=O)[C@H](Cc1c[nH]c2ccccc12)NC(=O)[C@H](CCC(N)=O)NC(=O)[C@@H](Cc1ccc(O)cc1)NC(=O)CCC(=O)NCCOCCOCC(=O)N[C@@H](CCCCNC(=O)CN1CCN(CC(=O)O)CCN(CC(=O)O)CC1)C(=O)NCCOCCOCC(=O)NCC(=O)N[C@H](Cc1ccc(O)cc1)C(=O)N[C@@H](CCC(N)=O)C(=O)N[C@@H](Cc1c[nH]c2ccccc12)C(=O)N[C@@H](C)C(=O)N[C@H](C(=O)NCCC(=O)N[C@@H](Cc1c[nH]cn1)C(=O)N[C@@H](Cc1cccs1)C(=O)N[C@@H](CCCC)C(N)=O)C(C)C)C(C)C)C(N)=O [^64Cu/NOTA-dimer 2, metal not drawn] (I: K(NOTA)[AEEA]G[dY]QWAV[βAla]H[2Thi][Nle]-NH2 / II: [dY]QWAV[βAla]H[2Thi][Nle]-NH2; linker I:N-II:N via X1), the “Stability in mouse plasma” value [1] is reported as “stable”, the tissue to tissue ratio at 0.5 h ([2]; Tumor/blood ratio) is reported as 1.39 ± 0.3 and the tissue to tissue ratio at 2 h ([2]; Tumor/blood ratio) is reported as 4.09 ± 1.79. It also gave a tissue to tissue ratio at 0.5 h ([2]; Tumor/kidney ratio) of 0.28 ± 0.09, a tissue to tissue ratio at 2 h ([2]; Tumor/kidney ratio) of 0.22 ± 0.11 and a tissue to tissue ratio at 0.5 h ([2]; Tumor/liver ratio) of 0.1 ± 0.01. It also gave a tissue to tissue ratio at 2 h ([2]; Tumor/liver ratio) of 0.22 ± 0.07, a tissue to tissue ratio at 0.5 h ([2]; Tumor/muscle ratio) of 3.95 ± 1.98 and a tissue to tissue ratio at 2 h ([2]; Tumor/muscle ratio) of 4.46 ± 1.86. For the same compound, the tissue to tissue ratio at 0.5 h ([2]; Tumor/pancreas ratio) was 0.89 ± 0.11, the tissue uptake at 0.5 h ([2]; Biodistribution Adrenal) was 9.23 ± 5.01 %ID/g and the tissue uptake at 0.5 h ([2]; Biodistribution Blood) was 3.13 ± 0.67 %ID/g. For the same compound, the tissue uptake at 0.5 h ([2]; Biodistribution Bone) was 0.78 ± 0.21 %ID/g, the tissue uptake at 2 h ([2]; Biodistribution Bone) was 0.83 ± 0.19 %ID/g and the tissue uptake at 0.5 h ([2]; Biodistribution Brain) was 0.38 ± 0.06 %ID/g. For the same compound, the tissue uptake at 2 h ([2]; Biodistribution Brain) was 0.22 ± 0.05 %ID/g, the tissue uptake at 0.5 h ([2]; Biodistribution Fat) was 1.86 ± 0.81 %ID/g and the tissue uptake at 0.5 h ([2]; Biodistribution Heart) was 4.42 ± 1.59 %ID/g. The tissue uptake at 2 h ([2]; Biodistribution Heart) was 2.68 ± 0.13 %ID/g, the tissue uptake at 0.5 h ([2]; Biodistribution Kidney) was 17 ± 6.24 %ID/g and the tissue uptake at 2 h ([2]; Biodistribution Kidney) was 26.4 ± 8.13 %ID/g. The tissue uptake at 0.5 h ([2]; Biodistribution Liver) was 41.8 ± 5.58 %ID/g, the tissue uptake at 2 h ([2]; Biodistribution Liver) was 23.1 ± 2.36 %ID/g and the tissue uptake at 0.5 h ([2]; Biodistribution Lungs) was 7.22 ± 2.73 %ID/g. The tissue uptake at 0.5 h ([2]; Biodistribution Muscle) was 1.59 ± 1.16 %ID/g, the tissue uptake at 2 h ([2]; Biodistribution Muscle) was 1.13 ± 0.62 %ID/g and the tissue uptake at 0.5 h ([2]; Biodistribution Pancreas) was 4.6 ± 0.57 %ID/g. For the same compound, the tissue uptake at 0.5 h ([2]; Biodistribution Plasma) was 5.27 ± 1.27 %ID/g, the tissue uptake at 0.5 h ([2]; Biodistribution Spleen) was 5.31 ± 1.43 %ID/g and the tissue uptake at 2 h ([2]; Biodistribution Spleen) was 5.5 ± 2.61 %ID/g. For the same compound, the tissue uptake at 0.5 h ([2]; Biodistribution Tumor) was 3.95 ± 0.26 %ID/g, the tissue uptake at 2 h ([2]; Biodistribution Tumor) was 6.28 ± 2.87 %ID/g and the “Biodistribution Adrenal” value ([3]; Balb/c nude, 2 h) was 11.56 ± 4.91 %ID/g. The “Biodistribution Blood” value ([3]; Balb/c nude, 2 h) was 1.34 ± 0.15 %ID/g, the “Biodistribution Fat” value ([3]; Balb/c nude, 2 h) was 0.68 ± 0.61 %ID/g and the “Biodistribution Lungs” value ([3]; Balb/c nude, 2 h) was 5.07 ± 1.58 %ID/g. The “Biodistribution Pancreas” value ([3]; Balb/c nude, 2 h) was 13.35 ± 7.38 %ID/g, the “Biodistribution Plasma” value ([3]; Balb/c nude, 2 h) was 2.45 ± 0.27 %ID/g and the Tumor/pancreas ratio ([3]; Balb/c nude, iv, 2 h) was 0.36 ± 0.09.
For CCCC[C@H](NC(=O)[C@H](Cc1cccs1)NC(=O)[C@H](Cc1c[nH]cn1)NC(=O)CCNC(=O)[C@@H](NC(=O)[C@H](C)NC(=O)[C@H](Cc1c[nH]c2ccccc12)NC(=O)[C@H](CCC(N)=O)NC(=O)[C@@H](Cc1ccc(O)cc1)NC(=O)COCCOCCNC(=O)CN1CCN(CC(=O)O)CCN(CC(=O)O)CC1)C(C)C)C(N)=O [^64Cu/NOTA-monomer, metal not drawn] ({NOTA-AEEA}-[dY]QWAV[βAla]H[2Thi][Nle]-NH2), the “Stability in mouse plasma” value [1] was “stable”, the tissue to tissue ratio at 0.5 h ([2]; Tumor/blood ratio) was 1.49 ± 0.41 and the tissue uptake at 0.5 h ([2]; Biodistribution Liver) was 5.38 ± 8.12 %ID/g. For the same compound, the tissue uptake at 0.5 h ([2]; Biodistribution Pancreas) was 5.1 ± 2.5 %ID/g, the “Biodistribution Adrenal” value ([3]; Balb/c nude, 0.5 h) was 4.29 ± 1.13 %ID/g and the “Biodistribution Blood” value ([3]; Balb/c nude, 0.5 h) was 1.35 ± 0.47 %ID/g. For the same compound, the “Biodistribution Bone” value ([3]; Balb/c nude, 0.5 h) was 0.43 ± 0.46 %ID/g, the “Biodistribution Brain” value ([3]; Balb/c nude, 0.5 h) was 0.08 ± 0.07 %ID/g and the “Biodistribution Fat” value ([3]; Balb/c nude, 0.5 h) was 0.65 ± 0.54 %ID/g. The “Biodistribution Heart” value ([3]; Balb/c nude, 0.5 h) was 1.05 ± 0.91 %ID/g, the “Biodistribution Kidney” value ([3]; Balb/c nude, 0.5 h) was 10.42 ± 1.29 %ID/g and the “Biodistribution Lungs” value ([3]; Balb/c nude, 0.5 h) was 1.77 ± 1.28 %ID/g. The “Biodistribution Muscle” value ([3]; Balb/c nude, 0.5 h) was 0.40 ± 0.33 %ID/g, the “Biodistribution Plasma” value ([3]; Balb/c nude, 0.5 h) was 2.48 ± 0.63 %ID/g and the “Biodistribution Spleen” value ([3]; Balb/c nude, 0.5 h) was 1.63 ± 1.82 %ID/g. For the same compound, the “Biodistribution Tumor” value ([3]; Balb/c nude, 0.5 h) was 1.79 ± 0.46 %ID/g, the Tumor/kidney ratio ([3]; Balb/c nude, iv, 0.5 h) was 0.17 ± 0.04 and the Tumor/liver ratio ([3]; Balb/c nude, iv, 0.5 h) was 2.07 ± 1.13. It also gave a Tumor/muscle ratio ([3]; Balb/c nude, iv, 0.5 h) of 7.42 ± 3.17, a Tumor/pancreas ratio ([3]; Balb/c nude, iv, 0.5 h) of 0.44 ± 0.17 and a Tumor/muscle ratio [3] of 7.42 ± 0.41.
